{
  "source": "the supplement of paper PMC10307832",
  "assay_in_all_cases": "relative viability (nuclei count vs DMSO), 5 days (fraction); higher = more cells survive",
  "key": {"AZ505 + Navitoclax": {"compound": "C1CCC(CC1)N(CCNCCC2=C3C(=C(C=C2)O)NC(=O)CO3)C(=O)CCNCCC4=CC(=C(C=C4)Cl)Cl [AZ505] + CC1(C)CCC(c2ccc(Cl)cc2)=C(CN2CCN(c3ccc(C(=O)NS(=O)(=O)c4ccc(N[C@H](CCN5CCOCC5)CSc5ccccc5)c(S(=O)(=O)C(F)(F)F)c4)cc3)CC2)C1 [Navitoclax] (partner 0.5 µM)", "how_it_was_run": "(§1)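 For relative viability, nuclei counts in treated wells were divided by those in vehicle wells. Lung cancer cell lines had been pin-tool dosed in 1536-well plates the day after seeding and cultured for 5 days, then fixed and stained in one step (final 0.05% Triton X-100, 1% formaldehyde, 1 ug/ml Hoechst) and imaged at 4×. Doses were one drug alone or a fixed anchor-drug dose plus five library-drug doses (not always all listed) in √10 steps, and values are duplicate-plate medians.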"}, "AZ505 + OSI-027": {"compound": "C1CCC(CC1)N(CCNCCC2=C3C(=C(C=C2)O)NC(=O)CO3)C(=O)CCNCCC4=CC(=C(C=C4)Cl)Cl [AZ505] + COc1cccc2cc(-c3nc([C@H]4CC[C@H](C(=O)O)CC4)n4ncnc(N)c34)[nH]c12 [OSI-027] (partner 0.5 µM)", "how_it_was_run": "as §1"}, "Dactolisib + Navitoclax": {"compound": "Cn1c(=O)n(-c2ccc(C(C)(C)C#N)cc2)c2c3cc(-c4cnc5ccccc5c4)ccc3ncc21 [Dactolisib] + CC1(C)CCC(c2ccc(Cl)cc2)=C(CN2CCN(c3ccc(C(=O)NS(=O)(=O)c4ccc(N[C@H](CCN5CCOCC5)CSc5ccccc5)c(S(=O)(=O)C(F)(F)F)c4)cc3)CC2)C1 [Navitoclax] (partner 0.5 µM)", "how_it_was_run": "as §1"}, "Dactolisib + Lapatinib": {"compound": "Cn1c(=O)n(-c2ccc(C(C)(C)C#N)cc2)c2c3cc(-c4cnc5ccccc5c4)ccc3ncc21 [Dactolisib] + CS(=O)(=O)CCNCc1ccc(-c2ccc3ncnc(Nc4ccc(OCc5cccc(F)c5)c(Cl)c4)c3c2)o1 [Lapatinib] (partner 2 µM)", "how_it_was_run": "as §1"}},
  "data": [
    {"cell line": "UMC-11", "values": [
      {"measurement": "relative viability", "setting": "AZ505 + Navitoclax; first compound 0.08 µM", "value": 0.26},
      {"measurement": "relative viability", "setting": "AZ505 + Navitoclax; first compound 0.253 µM", "value": 0.295},
      {"measurement": "relative viability", "setting": "AZ505 + Navitoclax; first compound 0.8 µM", "value": 0.327},
      {"measurement": "relative viability", "setting": "AZ505 + Navitoclax; first compound 2.53 µM", "value": 0.334},
      {"measurement": "relative viability", "setting": "AZ505 + Navitoclax; first compound 8 µM", "value": 0.373},
      {"measurement": "relative viability", "setting": "AZ505 + OSI-027; first compound 0.08 µM", "value": 0.413},
      {"measurement": "relative viability", "setting": "AZ505 + OSI-027; first compound 0.253 µM", "value": 0.53},
      {"measurement": "relative viability", "setting": "AZ505 + OSI-027; first compound 0.8 µM", "value": 0.452},
      {"measurement": "relative viability", "setting": "AZ505 + OSI-027; first compound 2.53 µM", "value": 0.476},
      {"measurement": "relative viability", "setting": "AZ505 + OSI-027; first compound 8 µM", "value": 0.492},
      {"measurement": "relative viability", "setting": "Dactolisib + Navitoclax; first compound 0.002 µM", "value": 0.339},
      {"measurement": "relative viability", "setting": "Dactolisib + Navitoclax; first compound 0.006325 µM", "value": 0.286},
      {"measurement": "relative viability", "setting": "Dactolisib + Navitoclax; first compound 0.02 µM", "value": 0.243},
      {"measurement": "relative viability", "setting": "Dactolisib + Navitoclax; first compound 0.06325 µM", "value": 0.131},
      {"measurement": "relative viability", "setting": "Dactolisib + Navitoclax; first compound 0.2 µM", "value": 0.124},
      {"measurement": "relative viability", "setting": "Dactolisib + Lapatinib; first compound 0.002 µM", "value": 0.863},
      {"measurement": "relative viability", "setting": "Dactolisib + Lapatinib; first compound 0.006325 µM", "value": 0.788},
      {"measurement": "relative viability", "setting": "Dactolisib + Lapatinib; first compound 0.02 µM", "value": 0.78},
      {"measurement": "relative viability", "setting": "Dactolisib + Lapatinib; first compound 0.06325 µM", "value": 0.316},
      {"measurement": "relative viability", "setting": "Dactolisib + Lapatinib; first compound 0.2 µM", "value": 0.272}
    ]}
  ]
}
